For twelve compounds, IC50 results are on record in patent publication US9221756B2, “Pyrrole derivatives” (priority 2011, dated 2015).

The structures appear in SMILES notation. Bounds are passed on as bounds.

For one assay, the target named is pneumolysin (Streptococcus pneumoniae serotype 2, UniProt Q04IN8). Briefly: Inhibition of the haemolytic activity of pneumolysin (sheep erythrocytes). The note with it: IC50, inhibition of pneumolysin-induced haemolysis of sheep erythrocytes; class symbols of Table 1. The format is cell-based.
pneumolysin, sequence (Q04IN8 whole entry): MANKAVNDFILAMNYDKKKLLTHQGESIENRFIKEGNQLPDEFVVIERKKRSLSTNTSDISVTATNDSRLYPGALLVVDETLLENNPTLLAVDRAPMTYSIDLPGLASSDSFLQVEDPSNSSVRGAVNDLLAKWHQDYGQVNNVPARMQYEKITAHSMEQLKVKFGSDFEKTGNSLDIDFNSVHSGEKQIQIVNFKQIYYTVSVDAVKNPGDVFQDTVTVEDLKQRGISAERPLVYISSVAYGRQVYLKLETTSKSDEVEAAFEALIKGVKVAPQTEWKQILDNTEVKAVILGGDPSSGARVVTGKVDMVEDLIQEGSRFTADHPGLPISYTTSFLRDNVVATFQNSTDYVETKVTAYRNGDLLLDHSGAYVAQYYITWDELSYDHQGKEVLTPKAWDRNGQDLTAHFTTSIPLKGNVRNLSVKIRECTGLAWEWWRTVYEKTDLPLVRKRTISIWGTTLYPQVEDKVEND
Consider `CCOC(=O)c1c(O)c(O)c(C(=O)N(C)C)n1-c1ccc(OCCCN2CCOCC2)cc1` [UL1-102, ethyl 5-(dimethylcarbamoyl)-3,4-dihydroxy-1-(4-(3-morpholinopropoxy)phenyl)-1H-pyrrole-2-carboxylate], for which the half-maximal inhibitory concentration (IC50) is below 10 µM.
On the same count and under the same terms, next, `CCOC(=O)c1c(O)c(O)c(C(=O)N(C)C)n1-c1ccc(OCCCN2CCN(C)CC2)cc1` [UL1-103, ethyl 5-(dimethylcarbamoyl)-3,4-dihydroxy-1-(4-(3-(4-methylpiperazin-1-yl)propoxy)phenyl)-1H-pyrrole-2-carboxylate]: below 10 µM.
`CCOC(=O)c1c(OC(=O)CCOC)c(OC(=O)CCOC)c(C(=O)N(C)C)n1-c1ccc(OC)cc1` [UL1-104, 2-(dimethylcarbamoyl)-5-(ethoxycarbonyl)-1-(4-methoxyphenyl)-1H-pyrrole-3,4-diyl bis(3-methoxypropanoate)] yielded a concentration for half-maximal inhibition (IC50) below 10 µM.
Same read-out and setting: next, `CCOC(=O)c1c(O)c(O)c(C(=O)N(C)C)n1-c1ccc(OCCCP(=O)(OCC)OCC)cc1` [UL1-106, ethyl 1-(4-(3-(diethoxyphosphoryl)propoxy)phenyl)-5-(dimethylcarbamoyl)-3,4-dihydroxy-1H-pyrrole-2-carboxylate]: below 10 µM; `CCOC(=O)c1c(O)c(O)c(C(=O)N(C)C)n1-c1ccc(OCCCP(=O)(O)O)cc1` [UL1-107, (3-(4-(2-(dimethylcarbamoyl)-5-(ethoxycarbonyl)-3,4-dihydroxy-1H-pyrrol-1-yl)phenoxy)propyl)phosphonic acid]: below 10 µM.
The same measure, in the same setting: under `CCOC(=O)c1c(OC(=O)C(C)(C)COCCOC)c(OC(=O)C(C)(C)COCCOC)c(C(=O)N(C)C)n1-c1ccc(OC)cc1` [UL1-108, 2-(dimethylcarbamoyl)-5-(ethoxycarbonyl)-1-(4-methoxyphenyl)-1H-pyrrole-3,4-diyl bis(3-(2-methoxyethoxy)-2,2-dimethylpropanoate)] stands 10 to 20 µM; under `CCOC(=O)c1c(O)c(O)c(C(=O)N(C)C)n1-c1ccc(OCCCS(C)(=O)=O)cc1` [UL1-110, ethyl 5-(dimethylcarbamoyl)-3,4-dihydroxy-1-(4-(3-(methylsulfonyl)propoxy)phenyl)-1H-pyrrole-2-carboxylate], below 10 µM.
Still for that read-out and setting: next, `COc1ccc(-n2c(C(=O)OCC(C)(C)C)c(O)c(O)c2C(=O)N(C)C)cc1` [UL1-112, neopentyl 5-(dimethylcarbamoyl)-3,4-dihydroxy-1-(4-methoxyphenyl)-1H-pyrrole-2-carboxylate]: below 10 µM; `COc1ccc(-n2c(C(=O)OC3C(C)CCCC3C)c(O)c(O)c2C(=O)N(C)C)cc1` (centres unmarked) [UL1-113, 2,6-dimethylcyclohexyl 5-(dimethylcarbamoyl)-3,4-dihydroxy-1-(4-methoxyphenyl)-1H-pyrrole-2-carboxylate]: below 10 µM.
For `COc1ccc(-n2c(C(=O)OC3CCCC3)c(O)c(O)c2C(=O)N(C)C)cc1` [UL1-116, cyclopentyl 5-(dimethylcarbamoyl)-3,4-dihydroxy-1-(4-methoxyphenyl)-1H-pyrrole-2-carboxylate], the IC50 is below 10 µM.
Same read-out and setting: next, `CCOC(=O)c1c(OC(=O)C(C)(C)COCCOCCOCCOCCOCCOCCOCCOC)c(OC(=O)C(C)(C)COCCOCCOCCOCCOCCOCCOCCOC)c(C(=O)N(C)C)n1-c1ccc(OC)cc1` [UL1-119, 2-(dimethylcarbamoyl)-5-(ethoxycarbonyl)-1-(4-methoxyphenyl)-1H-pyrrole-3,4-diyl bis(25,25-dimethyl-2,5,8,11,14,17,20,23-octaoxahexacosan-26-oate)]: below 10 µM.
`COCCOCCOCCOCCOCCOCCOCCOCC(C)(C)C(=O)Oc1c(OC(=O)C(C)(C)COCCOCCOCCOCCOCCOCCOCCOC)c(C(=O)N(C)C)n(-c2ccc(OC)cc2)c1C(=O)N(C)C` [UL1-120, 2,5-bis(dimethylcarbamoyl)-1-(4-methoxyphenyl)-1H-pyrrole-3,4-diyl bis(25,25-dimethyl-2,5,8,11,14,17,20,23-octaoxahexacosan-26-oate)] had an IC50 of 10 to 20 µM.

Staying with this assay, now noted: IC50, inhibition of pneumolysin-induced haemolysis of sheep erythrocytes; specific values.
`CCOC(=O)c1c(O)c(O)c(C(=O)N(C)C)n1-c1ccc(OCCCP(=O)(OCC)OCC)cc1` [UL1-106, ethyl 1-(4-(3-(diethoxyphosphoryl)propoxy)phenyl)-5-(dimethylcarbamoyl)-3,4-dihydroxy-1H-pyrrole-2-carboxylate] displayed a half-maximal inhibitory concentration (IC50) of 0.17 µM.
Still for that read-out and setting: next, `COc1ccc(-n2c(C(=O)OC3CCCC3)c(O)c(O)c2C(=O)N(C)C)cc1` [UL1-116, cyclopentyl 5-(dimethylcarbamoyl)-3,4-dihydroxy-1-(4-methoxyphenyl)-1H-pyrrole-2-carboxylate]: 0.18 µM.
